Values of other authors, collected in patent publication US20100086625A1, “METHODS FOR TREATING SKIN LESIONS” (priority 2008, published 2010).

Test system: cold sores
Conditions: oral

Row | SMILES | shortening of the herpes infection (1500 mg) | shortening of a herpes infection (2 gm twice a day for one day)
1 | CC(=O)OCC(CCn1cnc2cnc(N)nc21)COC(C)=O [famciclovir] | two | –
2 | CC(C)[C@H](N)C(=O)OCCOCn1cnc2c(=O)[nH]c(N)nc21 [valacyclovir] | – | over one
